Results published in US20080103209A1, “Compounds And Methods For Treating Non-Inflammatory Pain Using Ppar Alpha Agonists” (The Regents of The University of California, priority 2004, published 2008).

What was measured:
PPARβ/δ = molecular target: T1, PPARβ/δ (Homo sapiens, UniProt Q03181); test: PPARβ/δ transactivation assay; format: cell-based; settings: concentrations as high as 20 μM
T1 construct: expressed in transfected cells
T1 sequence (Q03181 1-441): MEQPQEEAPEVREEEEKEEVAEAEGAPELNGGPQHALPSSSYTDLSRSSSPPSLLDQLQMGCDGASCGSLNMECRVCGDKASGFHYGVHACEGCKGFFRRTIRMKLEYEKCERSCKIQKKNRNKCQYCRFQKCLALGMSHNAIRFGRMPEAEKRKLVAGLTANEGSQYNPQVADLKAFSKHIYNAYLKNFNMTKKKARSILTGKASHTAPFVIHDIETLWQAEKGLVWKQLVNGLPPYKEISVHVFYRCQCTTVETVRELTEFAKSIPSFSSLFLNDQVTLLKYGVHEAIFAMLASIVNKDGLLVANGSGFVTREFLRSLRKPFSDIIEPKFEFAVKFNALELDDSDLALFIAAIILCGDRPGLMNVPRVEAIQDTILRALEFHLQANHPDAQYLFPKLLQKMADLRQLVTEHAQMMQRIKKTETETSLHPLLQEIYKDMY
Method: Transactivation assays were performed as previously described [Fu et al., Nature 425:90-93 (2003)].

Swiss mice [1] = test: Prolonged carrageenan-induced paw oedema, hyperalgesia and oedema; format: in vivo, mouse; settings: 30 mg-kg^−1 s.c. on the third day of carrageenan treatment
Description: The ability of PPARα agonists to attenuate hyperalgesia was further explored in two mouse models of subchronic inflammation: (i) experimental arthritis elicited by intradermal injection of complete Freund's adjuvant (CFA) into the base of the tail (Whiteley et al., Current Protocols in Pharmacology, 2, 5.5.1-5.5.5. (2001)); and (ii) prolonged oedema induced by repeated carrageenan injections into the paw (Otterness et al., Methods Enzymol, 162, 320 (1988)). […] Both drugs, but not their vehicle, suppressed mechanical (FIG. 7A, 7B) and thermal (data not shown) sensitivity.
Carrageenan-induced paw oedema. An inflammatory response was initiated in the left hindpaw of male Swiss mice by injecting %-carrageenan (1% weight-vol^−1 in sterile saline, 50 μl) using a 27-gauge needle, and maintained it by repeating the injections on day 3, 7 and 14 after the first administration. Paw oedema was measured using a mouse plethysmometer (Ugo Basile, Italy) or by weighing the excised paw.
(§1) Mechanical hyperalgesia was determined by measuring paw withdrawal thresholds to an increasing pressure onto the dorsal surface of the paw using an analgesimeter (Ugo Basile, Italy) with a cut-off of 250 g. Withdrawal thresholds were measured on both the ipsilateral paw (inflamed or ligated) and contralateral paw (uninflamed or unligated) 60 min after subcutaneous drug administration.

PKAα catalytic subunit = test: Immunoblot of lumbar spinal cord extracts, PKAα catalytic subunit; format: in vivo, mouse; settings: neuropathic mice, PEA 30 mg-kg^−1 s.c. once daily for two weeks; change not statistically significant
Method: Opiate analgesics have a high liability to produce tolerance, a progressive loss of pharmacological activity caused by repeated drug administrations (Waldhoer et al., Annu Rev Biochem, 73, 953 (2004)). To assess whether tolerance develops to the antihyperalgesic effects of PPARα agonists, PEA (30 mg-kg^−1, s.c.) was administered once a day for 14 consecutive days from the time of surgery, measuring mechanical and thermal hyperalgesia at day 7 and 14.
Immunoblot analysis. Lumbar spinal cord tissue was weighed, homogenized in Tris-HCl (20 mM, pH 7.5), 10 mM NaF, 150 mM NaCl, 1% Nonidet P-40, 1 mM PMSF, 1 mM Na3VO4, leupeptin and trypsin inhibitor (10 μg/ml). After 1 h, the tissue lysates were subjected to centrifugation ay 100,000×g for 15 min at 4° C. Protein concentrations were estimated using a Bio-Rad protein assay and bovine serum albumin as a standard. Equal amounts of protein (20 μg) were dissolved in Laemmli sample buffer, boiled for 5 min, subjected to sodium dodecyl sulphate-polyacrylamide gel electrophoresis (8% polyacrylamide) and transferred onto nitrocellulose membranes at 240 mA for 40 min at room temperature. […] The films were scanned and densitometrically analysed with a model GS-700 imaging densitometer.

Swiss mice [2] = test: Complete Freund's adjuvant-induced arthritis, hyperalgesia; format: in vivo, mouse; settings: 30 mg-kg^−1 s.c., 60 min before test, day 7 and 14 after CFA
Method: as §1
Thermal hyperalgesia was assessed by the methods of Hargreaves (Hargreaves et al., Pain, 32, 77 (1988)) by measuring the latency to withdraw the hind paws from a focussed beam of radiant heat applied to the plantar surface, using an appropriate apparatus (Ugo Basile, Italy). The cut-off time was set at 30 sec. The mice were habituated to the apparatus for 10-15 min two days prior to the experiment.

mice = test: Magnesium sulfate-evoked writhing test; format: in vivo, mouse; settings: for average ED50, magnesium sulfate-evoked writhing / number of writhing episodes evoked by magnesium sulfate: subcutaneous, Swiss mice; for average ED50, magnesium sulfate-evoked writhing: n=8; for number of writhing episodes evoked by magnesium sulfate: GW7647 1-30, Wy-14643 4-80, PEA 1-20 mg-kg^−1
Method: Mice received a single dose of magnesium sulfate (120 mg/kg, dissolved in 0.5 ml saline, i.p.) and subsequent writhing episodes were monitored for a period of 30 min thereafter. Drugs were administered in saline/Tween 80/polyethylenglycol, (90/5/5) subcutaneously, 30 minutes before magnesium sulfate.
Next, the effect of PPARα agonists on the nocifensive behavior elicited by intraperitoneal injection of magnesium sulfate in mice, a model of visceral pain (Calignano, et al, Eur J Pharmacol 419, 191-8. (2001)), was explored.
Writhing test. Magnesium sulfate was injected (120 mg-kg^−1 in 0.5 ml saline, i.p.) in 12-h food-deprived mice and measured writhing episodes for 30 min (Calignano, et al, Eur J Pharmacol 419, 191-8. (2001)). Drugs or vehicle were administered by subcutaneous injection 30 min before magnesium sulfate.

Row | Compound | PPARβ/δ activation (PPARβ/δ) | mechanical sensitivity thresholds, carrageenan (Swiss mice [1]) | paw oedema, carrageenan (Swiss mice [1]) | spinal tissue levels of PKA α catalytic subunit (PKAα catalytic subunit) | mechanical and thermal sensitivity in CFA arthritis (Swiss mice [2]) | magnesium sulfate induced writhing in PPARα−/− mice (mice; PPARα−/− mice, 20 mg-kg^−1 s.c.) | average ED50, magnesium sulfate-evoked writhing (mice) [mg/kg] | number of writhing episodes evoked by magnesium sulfate (mice)
1 | CCCCCCCCCCCCCCCC(=O)NCCO [PEA, palmitoylethanolamide] | did not activate | normalized mechanical sensitivity thresholds | no effect | slightly decreased | suppressed | did not significantly modify | 9.9 | dose-dependently decreased the number of writhing episodes
2 | CC(C)(Sc1ccc(CCN(CCCCC2CCCCC2)C(=O)NC2CCCCC2)cc1)C(=O)O [GW7647] |  | normalized mechanical sensitivity thresholds | no effect |  | suppressed |  | 7.5 | dose-dependently decreased the number of writhing episodes
